The source of these data is US20250213700A1, “COMPOUNDS, COMPOSITIONS, AND METHODS FOR CELL-SPECIFIC PHARMACOLOGY” (Duke University, priority 2022, published 2025).

The subject of test [1] is D1-Cre mice with +HTP or ddHTP in left dorsal striatum. In words: open-field turning (locomotor) assay, unilateral delivery to dSPNs of dorsal striatum. Type of test: in vivo, mouse. The conditions noted are these: for open-field turning, +HTP mice / open-field turning, ddHTP mice: 10:1 mixture with Alexa488.1DART.2 infused into left dorsal striatum. The procedure: Mice: For behavioral experiments, mice strains included Drd1A-Cre (GENSAT EY262). For slice experiments, Drd1A-Cre were used. Mice were singly housed post-surgery, in a 12-hour reverse light cycle, with food and water provided ad libitum. Recombinant adeno-associated viral (rAAV) vectors.
Behavioral assays: Assays were performed at least 3 weeks after viral injection to allow for recombinant protein expression. Mice were acclimated to head-fixation for 3 consecutive days prior to behavioral experiments. Reagents were infused into the brain via the cranial cannula. Immediately following infusion, mice were placed into open-field chambers (27 cm×27 cm) in the dark, and behavior was recorded using infrared video.
These advances were combined in a mouse locomotor assay. AAV-DIO-^+HTPGPI or AAV-DIO-ddHTPGPI were expressed in the left dorsal striatum of D1-Cre mice, and implanted a unilateral cannula. Three weeks later, a baseline open-field behavior (saline infusion) was obtained; followed one week later by infusion of a 10:1 mixture of YM90K.1DART.2/Alexa488.1DART.2 (FIG. 3A). Mice were perfused for histology 24 hrs later, and quantitative measurement of the integrated Alexa capture over the dorsal striatum was performed. The magnitude of open-field turning vs dye capture (FIG. 3C) was then plotted A control was also performed as above using DART.1 and non-DART fluorescent dye (fluorogold) (FIG. 3B and FIG. 3D). Three points merit emphasis. […] Second, the data yielded a tight correlation between behavioral effects and histology; in particular the four animals with the weakest behavioral impact corresponded to those with little dye capture, providing an unbiased parameter with which to exclude these animals due to technical failure. Such a correlation was not seen with the original technology, despite efforts to estimate cannula patency with a non-DART fluorescent tracer. Third, in these behaving mice, YM90K.1DART.2 was substantially more efficacious than its predecessor, driving a 3-fold larger impact in a locomotor assay following unilateral delivery to dSPNs of the dorsal striatum (FIG. 3E and FIG. 3F). Experiments in acute striatal brain slice confirmed the performance boost afforded by DART.2. Low-dose, YM90K.1DART.2 produced rapid AMPAR antagonism on +HTP neurons, achieving half-block after only 5 min of a 0.3 µM dose. This represents a ˜10-fold acceleration in comparison to its predecessor, which required 15 min of a 1 µM dose to achieve a similar block. Neither reagent produced any measurable impact on −HTP or ddHTP neurons at these doses. However, only YM90K.1DART.2 offered kinetics fast enough for routine slice physiology experiments.

For a further test, the system named is endogenous AMPARs. In words: all-optical cultured-neuron assay of AMPAR-dependent synaptic transmission. The note with it: DW=Rx50/HTL50. Type of test: cell-based, rat. The procedure: Cultured neuronal assays: Preparation of hippocampal cultures: Mixed glial and neuronal cultures were prepared from the hippocampus of postnatal day 0 to 1 Sprague-Dawley rat pups. Separate pools of dissociated cells were transfected via electroporation (LONZA, V4SP-3096) with plasmid constructs, and depending on assay directives, either plated individually or mixed with a different pool of electroporated cells after a 10 min recovery period. Cells were cultured on coverslips (Deckglaser) pre-treated with high molecular weight poly-D-lysine (Sigma, P7405; 0.05 mg/mL) in 24-well plates and maintained in NbActiv4 (BrainBits, Nb4-500) at 37 C, 5% CO2. Media was changed by half at DIV3 or 4 and then weekly thereafter; experiments were performed between DIV16 to DIV18.

Test [2] deals with +HTP somatostatin interneurons and -HTP neurons of V1 visual cortex. The test is described as follows: 2P calcium imaging of V1 visual responses after contralateral ventricle infusion, SOM-Cre mice. Type of test: in vivo, mouse. The procedure:
Top left: Mice expressing pan-neuronal GCaMP8s with SOM-specific ^+HTP. Window over V1. DART delivered via the contralateral ventricle. Bottom left: In-vivo and ex-vivo expression and dye capture. Right: Mice presented oriented visual gratings, 2P Ca^2+ imaging obtained before and 5-6 hr after infusion of 0.3 nmole Alexa647.1^DART.2+3 nmole YM90K.1^DART.2 (2 μL volume) into the contralateral ventricle.
Next, it was examined whether this strategy could deliver a pharmacologically active DART to genetically defined cells. A surgery was performed in which AAV DIO +HTPGPI was injected into the V1 visual cortex of SOM-Cre mice for cell-specific expression in somatostatin interneurons, along with a co-injected AAV-GCaMP8s virus for pan-neuronal neural activity monitoring. A cannula was implanted in the contralateral ventricle, and glass window over V1. Following surgical recovery, a mixture of YM90K.1DART.2+Alexa647.1DART.2 was infused. […] To test for pharmacological effects, 2P calcium imaging of +HTP and −HTP was performed while mice were presented with oriented gratings. A reduction in +HTP visual response was apparent 4 hours post DART infusion. This reduction persisted even after 24 hours post infusion.

Where [3] appears, read: 5-6 hr after infusion of 3 nmole with 0.3 nmole Alexa647.1DART.2.

Consider `COc1cc(CCCCl)ccc1CCOCCNC(=O)c1ccc(CNC(=O)CCOCCOCCOCCOCCOCCOCCOCCOCCOCCOCCOCCOCCOCCOCCOCCOCCOCCOCCOCCOCCOCCOCCOCCOCCOCCOCCOCCOCCOCCOCCOCCOCCOCCOCCOCCOCCn2cc(COCCOCCOCCOCCOCCOCCNC(=O)CCCn3c(=O)c(=O)[nH]c4cc([N+](=O)[O-])c(-n5ccnc5)cc43)nn2)cc1` [YM90K.1DART.2], for which, in test [1], the “open-field turning, +HTP mice” value is given as “a turning bias in +HTP mice was seen” and the “open-field turning, ddHTP mice” value is “no turning bias”. For the same compound, in test [1] (listed as YM90K.1^DART.2), the “open-field turning, +HTP mice” value is listed as “turned in proportion to dye capture” and the “open-field turning, ddHTP mice” value was “little turning”. Also, in test [1] (unilateral delivery to dSPNs of the dorsal striatum), the “impact in locomotor assay / behavioral potency in comparison to predecessor” value is on record as 3 fold. Moreover, the “widening of Dosing Window vs DART.1 reagent” value in the test with endogenous AMPARs is 10 fold. Moreover, the “DW (t=15 m)” value in the test on endogenous AMPARs (ddHTP vs +HTP cells, 15 min) is on record as 300. Further, in test [2] (setting [3]), the “responses in +HTP SOM cells” value was “reduced” and the “responses in -HTP putative pyramidal cells” value is reported as “unchanged or increased”. Moreover, the “+HTP visual response” value in test [2] (4 hours post DART infusion) is reported as “reduction”. The “-HTP cells visual response” value in test [2] (24 hours post infusion) is recorded as “no change or increase in visual response”. Also, the “+HTP cells visual response relative to pre-DART” value in test [2] (24 hours post infusion, 50% contrast) is “decrease in visual response”.
